Results: PubChem BioAssay (NCI)
Several values for one entry are separate records, joined by “and”; a condition that tells them apart may be missing. Identical values can stand only once.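 Five concentrations, 48 hours, 96-well plates. The concentration for 50% growth inhibition is given as GI50. TGI: total growth inhibition.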

Experiments:
Assay in all cases: NCI tumour cell line growth inhibition, 48 h
[1] = tested on: SF-539 CNS
[2] = tested on: SK-MEL-2 melanoma
[3] = tested on: MOLT-4 leukemia
[4] = tested on: HCC-2998 colon
[5] = tested on: HCT-15 colon
[6] = tested on: IGROV1 ovarian
[7] = tested on: RPMI-8226 leukemia
[8] = tested on: HOP-62 NSCLC
[9] = tested on: HL-60(TB) leukemia
[10] = tested on: BT-549 breast

Row | SMILES | TGI [1] [µM] | TGI [2] | TGI [3] [µM] | TGI [4] [µM] | TGI [5] | TGI [6] | TGI [7] | TGI [8] | TGI [9] | GI50 [2] | GI50 [3] | GI50 [10] | TGI [10] | GI50 [5] | GI50 [6] | GI50 [9] | GI50 [7] | GI50 [1] [µM] | GI50 [4] [µM] | GI50 [8] [µM]
1 | COc1cccc(/C=C2\CCC(C)(CN(C)C)C2=O)c1 (stereo not given) | > 100 | > 100 µM | > 100 | > 100 | > 100 µM | > 100 µM | 68.1 µM | > 100 µM | – | – | – | – | – | – | – | – | – | – | – | –
2 | O=C(NC12CC3CC(CC(C3)C1)C2)C(=O)c1c[nH]c2ccc(Cl)cc12 | > 100 | 89.4 µM | > 100 | > 100 | > 100 µM | > 100 µM | > 100 µM | 66.2 µM | > 100 µM | – | – | – | – | – | – | – | – | – | – | –
3 | Cc1ccc(S(=O)(=O)N/N=C(\c2nc3ccc([N+](=O)[O-])cc3[nH]c2=O)C(O)c2ccccc2Cl)cc1 (stereo not given) | > 100 | > 100 µM | > 100 | > 100 | > 100 µM | > 100 µM | > 100 µM | > 100 µM | > 100 µM | – | – | – | – | – | – | – | – | – | – | –
4 | CC(CC(=O)Nc1ccc(NC(=O)CC(C)N=NC(N)=S)cc1)N=NC(N)=S (stereo not given) | > 100 | > 100 µM | > 100 | > 100 | > 100 µM | > 100 µM | > 100 µM | > 100 µM | > 100 µM | – | – | – | – | – | – | – | – | – | – | –
5 | CC1(C)CC[C@H](C2=CC(=O)c3c(O)ccc(O)c3C2=O)O1 | – | 8.47 µM and 2.67 µM and 1.56 µM | – | – | 4.11 µM and 1.64 µM and 0.65 µM | 9.58 µM and 5.31 µM and 3.21 µM | 5.13 µM and 0.992 µM and 2.2 µM | 9.96 µM and 6.57 µM | 1.36 µM and 0.442 µM | 4.34 µM and 1.3 µM and 0.682 µM | 0.487 µM and 0.16 µM and 0.137 µM | 0.963 µM and 0.358 µM | 2.19 µM and 1.13 µM | 1.71 µM and 0.378 µM and 0.226 µM | 4.93 µM and 2.48 µM and 1.61 µM | 0.505 µM and 0.131 µM | 1.42 µM and 0.278 µM and 0.398 µM | – | – | –
6 | NC(=O)/C=C/C(=O)O | > 5000 | > 5000 µM | > 5000 | – | > 5000 µM | > 5000 µM | > 5000 µM | > 5000 µM | > 5000 µM | – | – | – | – | – | – | – | – | – | – | –
7 | CCN(CC)CC(=O)N1CCc2c([nH]c3ccccc23)C1c1cccnc1 (stereo not given) | > 100 | – | > 100 | > 100 | > 100 µM | > 100 µM | > 100 µM | > 100 µM | > 100 µM | – | – | – | – | – | – | – | – | – | – | –
8 | O=C1C=C(O)c2[nH]c(=O)ccc2C1=O | > 100 | – | > 100 | > 100 | > 100 µM | > 100 µM | > 100 µM | > 100 µM | > 100 µM | – | – | – | – | – | – | – | – | – | – | –
9 | CCN(CC)CCNC(=O)c1cn2ncnc(Oc3ccc(NC(=O)Nc4ccc(Cl)c(C(F)(F)F)c4)c(F)c3)c2c1C | 2.43 | 3.3 µM | – | 3.77 | 2.89 µM | 3.5 µM | – | 3.72 µM | – | 1.61 µM | – | 1.86 µM | 3.48 µM | 1.46 µM | 1.85 µM | – | – | 1.12 | 2.17 | 1.88
10 | CN(C)Cc1c[nH]c2c(NCCN)c3c(c(NCCN)c12)C(=O)c1ccccc1C3=O | 7.47 | 8.27 µM | > 35.7 | 8.37 | 20 µM | 10.5 µM | 6.52 µM | 6.39 µM | – | 2.41 µM | 1.7 µM | 3.52 µM | 9.87 µM | 6.97 µM | 2.1 µM | – | 1.43 µM | 2.83 | 2.45 | 1.31
